# Assay results reported in publication PMC8129498, “Synthesis, Antitumor and Antiviral In Vitro Activities of New Benzotriazole-Dicarboxamide Derivatives” (Frontiers in Chemistry, 2021).
row,SMILES,melting point [°C]
1,O=C(Nc1ccc(Cn2nnc3ccccc32)cc1)c1ccc(C(=O)Nc2ccc(Cn3nnc4ccccc43)cc2)cc1,> 300
2,O=C(CCCCC(=O)Nc1ccc(-n2nnc3cc(Cl)c(Cl)cc32)cc1)Nc1ccc(-n2nnc3cc(Cl)c(Cl)cc32)cc1,293 to 294
3,O=C(CCCC(=O)Nc1ccc(Cn2nnc3ccccc32)cc1)Nc1ccc(Cn2nnc3ccccc32)cc1,237 to 238
4,O=C(CCCCC(=O)Nc1ccc(Cn2nnc3ccccc32)cc1)Nc1ccc(Cn2nnc3ccccc32)cc1,231 to 232
5,Cc1cc2nnn(Cc3ccc(NC(=O)CCCCC(=O)O)cc3)c2cc1C,203 to 204
6,Cc1cc2nnn(Cc3ccc(NC(=O)CCCC(=O)O)cc3)c2cc1C,270 to 272
7,O=C(O)c1ccc(C(=O)Nc2ccc(Cn3nnc4ccccc43)cc2)cc1,> 300
8,O=C(O)c1cccc(C(=O)Nc2ccc(Cn3nnc4cc(Cl)c(Cl)cc43)cc2)n1,175 to 177
9,O=C(Nc1ccc(-n2nnc3cc(Cl)c(Cl)cc32)cc1)c1cccc(C(=O)Nc2ccc(-n3nnc4cc(Cl)c(Cl)cc43)cc2)n1,> 300
10,Cc1cc2nnn(Cc3ccc(NC(=O)c4cccc(C(=O)O)n4)cc3)c2cc1C,214 to 216
11,O=C(O)c1cccc(C(=O)Nc2ccc(-n3nc4cc(Cl)c(Cl)cc4n3)cc2)n1,240
12,Cc1cc2nnn(Cc3ccc(NC(=O)CCCC(=O)Nc4ccc(Cn5nnc6cc(C)c(C)cc65)cc4)cc3)c2cc1C,253 to 255
13,O=C(Nc1ccc(Cn2nnc3ccccc32)cc1)c1ccc(C(=O)Nc2ccc(Cn3nnc4ccccc43)cc2)s1,> 300
14,O=C(O)CCCC(=O)Nc1ccc(Cn2nnc3cc(Cl)c(Cl)cc32)cc1,173 to 175
15,O=C(O)CCCCC(=O)Nc1ccc(Cn2nnc3ccccc32)cc1,134 to 136
16,Cc1cc2nnn(Cc3ccc(NC(=O)CCC(=O)Nc4ccc(Cn5nnc6cc(C)c(C)cc65)cc4)cc3)c2cc1C,270 to 272

row,SMILES,melting point [°C]
1,O=C(O)CCC(=O)Nc1ccc(Cn2nnc3ccccc32)cc1,193 to 195
2,O=C(Nc1ccc(Cn2nnc3cc(Cl)c(Cl)cc32)cc1)c1cccc(C(=O)Nc2ccc(Cn3nnc4cc(Cl)c(Cl)cc43)cc2)n1,> 300
3,Cc1cc2nnn(Cc3ccc(NC(=O)c4ccc(C(=O)Nc5ccc(Cn6nnc7cc(C)c(C)cc76)cc5)s4)cc3)c2cc1C,225 to 227
4,O=C(CCC(=O)Nc1ccc(Cn2nnc3ccccc32)cc1)Nc1ccc(Cn2nnc3ccccc32)cc1,255 to 257
5,O=C(O)CCC(=O)Nc1ccc(Cn2nnc3cc(Cl)c(Cl)cc32)cc1,214 to 216
6,Cc1cc2nnn(Cc3ccc(NC(=O)CCC(=O)O)cc3)c2cc1C,218 to 220
7,Cc1cc2nnn(Cc3ccc(NC(=O)c4ccc(C(=O)O)s4)cc3)c2cc1C,> 300
8,O=C(CCC(=O)Nc1ccc(-n2nnc3cc(Cl)c(Cl)cc32)cc1)Nc1ccc(-n2nnc3cc(Cl)c(Cl)cc32)cc1,264 to 265
9,O=C(O)CCCCC(=O)Nc1ccc(Cn2nnc3cc(Cl)c(Cl)cc32)cc1,228 to 230
10,O=C(Nc1ccc(-n2nnc3cc(Cl)c(Cl)cc32)cc1)c1ccc(C(=O)Nc2ccc(-n3nnc4cc(Cl)c(Cl)cc43)cc2)cc1,197 to 199
11,O=C(O)c1cccc(C(=O)Nc2ccc(Cn3nnc4ccccc43)cc2)n1,230 to 232
12,O=C(Nc1ccc(Cn2nnc3cc(Cl)c(Cl)cc32)cc1)c1ccc(C(=O)Nc2ccc(Cn3nnc4cc(Cl)c(Cl)cc43)cc2)s1,> 300
13,O=C(Nc1ccc(Cn2nnc3ccccc32)cc1)c1cccc(C(=O)Nc2ccc(Cn3nnc4ccccc43)cc2)n1,111 to 112
14,O=C(/C=C/C(=O)Nc1ccc(Cn2nnc3cc(Cl)c(Cl)cc32)cc1)Nc1ccc(Cn2nnc3cc(Cl)c(Cl)cc32)cc1,> 300
15,O=C(O)c1cccc(C(=O)Nc2ccc(-n3nnc4cc(Cl)c(Cl)cc43)cc2)n1,240
